# According to patent US10420341B2, “Herbicidal phenylpyrimidines” (BASF SE, priority 2015, dated 2019):
# Experiments:
# [1] = system: ALOMY; assay: greenhouse post-emergence herbicidal test; assay type: in vivo, Alopercurus myosuroides; settings: post-emergence method, scale from 0 to 100
# Description: (§1) The seeds of the test plants were sown separately for each species. For the post-emergence treatment, the test plants were first grown to a height of 3 to 15 cm, depending on the plant habit, and only then treated with the active ingredients which had been suspended or emulsified in water. For this purpose, the test plants were either sown directly and grown in the same containers, or they were first grown separately as seedlings and transplanted into the test containers a few days prior to treatment. Depending on the species, the plants were kept at 10-25° C. or 20-35° C., respectively. The test period extended over 2 to 4 weeks. During this time, the plants were tended, and their response to the individual treatments was evaluated. Evaluation was carried out using a scale from 0 to 100. 100 means no emergence of the plants, or complete destruction of at least the aerial moieties, and 0 means no damage, or normal course of growth. […] The plants used in the greenhouse experiments were of the following species: [table]
# [2] = system: APESV; assay: greenhouse pre-emergence herbicidal test; assay type: in vivo, Apera spica-venti; settings: pre-emergence method, scale from 0 to 100
# Description: (§2) The seeds of the test plants were sown separately for each species. For the pre-emergence treatment, the active ingredients, which had been suspended or emulsified in water, were applied directly after sowing by means of finely distributing nozzles. The containers were irrigated gently to promote germination and growth and subsequently covered with transparent plastic hoods until the plants had rooted. This cover caused uniform germination of the test plants, unless this had been impaired by the active ingredients. Depending on the species, the plants were kept at 10-25° C. or 20-35° C., respectively. The test period extended over 2 to 4 weeks. During this time, the plants were tended, and their response to the individual treatments was evaluated. Evaluation was carried out using a scale from 0 to 100. 100 means no emergence of the plants, or complete destruction of at least the aerial moieties, and 0 means no damage, or normal course of growth. […] The plants used in the greenhouse experiments were of the following species: [table]
# [3] = system: ECHCG; assay: greenhouse pre-emergence herbicidal test; assay type: in vivo, Echinocloa crus-galli; settings: pre-emergence method, scale from 0 to 100
# Description: as §2
# [4] = system: ECHCG; assay: greenhouse post-emergence herbicidal test; assay type: in vivo, Echinocloa crus-galli; settings: post-emergence method, scale from 0 to 100
# Description: as §1
SMILES,herbicidal activity against APESV ([2]; application rate 1000 g/ha),herbicidal activity against ECHCG ([3]; application rate 1000 g/ha),other results
Cc1c(F)cccc1-c1cnc(C2CC2)nc1C(=O)O [example 170],very good (a very good herbicidal activity is given at values of at least 85),very good (a very good herbicidal activity is given at values of at least 85),herbicidal activity against ALOMY ([1]; application rate 1000 g/ha): very good (a very good herbicidal activity is given at values of at least 85); herbicidal activity against ECHCG ([4]; application rate 1000 g/ha): good (A good herbicidal activity is given at values of at least 70)
COc1ccc(OC)c(-c2cnc(C3CC3)nc2C(=O)O)c1 [example 179],–,–,herbicidal activity against APESV ([2]; application rate 2000 g/ha): very good (a very good herbicidal activity is given at values of at least 85); herbicidal activity against ECHCG ([4]; application rate 2000 g/ha): very good (a very good herbicidal activity is given at values of at least 85)
CCc1ncc(-c2cc(C)ccc2Cl)c(C(=O)O)n1 [example 7],very good (a very good herbicidal activity is given at values of at least 85),very good (a very good herbicidal activity is given at values of at least 85),–
CCc1ncc(-c2cc(C)ccc2C)c(C(=O)OC)n1 [example 23],very good (a very good herbicidal activity is given at values of at least 85),very good (a very good herbicidal activity is given at values of at least 85),–
CCc1ncc(-c2cc(C)ccc2Cl)c(C(=O)OC)n1 [example 20],very good (a very good herbicidal activity is given at values of at least 85),very good (a very good herbicidal activity is given at values of at least 85),herbicidal activity against ECHCG ([4]; application rate 1000 g/ha): good (A good herbicidal activity is given at values of at least 70)
COc1ccc(C)c(-c2cnc(C3CC3)nc2C(=O)O)c1 [example 166],–,–,herbicidal activity against ALOMY ([1]; application rate 500 g/ha): good (A good herbicidal activity is given at values of at least 70); herbicidal activity against APESV ([2]; application rate 500 g/ha): very good (a very good herbicidal activity is given at values of at least 85); herbicidal activity against ECHCG ([3]; application rate 500 g/ha): very good (a very good herbicidal activity is given at values of at least 85); herbicidal activity against ECHCG ([4]; application rate 500 g/ha): good (A good herbicidal activity is given at values of at least 70)
COc1ccc(-c2cnc(SC)nc2C(=O)O)c(C)c1 [example 100],–,–,herbicidal activity against ECHCG ([4]; application rate 2000 g/ha): good (A good herbicidal activity is given at values of at least 70)
CCc1ncc(-c2ccccc2Cl)c(C(=O)OC)n1 [example 19],very good (a very good herbicidal activity is given at values of at least 85),very good (a very good herbicidal activity is given at values of at least 85),–
COC(=O)c1nc(C2CC2)ncc1-c1cc(C)ccc1C [example 228],–,–,herbicidal activity against ALOMY ([1]; application rate 2000 g/ha): very good (a very good herbicidal activity is given at values of at least 85); herbicidal activity against APESV ([2]; application rate 2000 g/ha): very good (a very good herbicidal activity is given at values of at least 85); herbicidal activity against ECHCG ([4]; application rate 2000 g/ha): very good (a very good herbicidal activity is given at values of at least 85)
COc1ccc(-c2cnc(C3CC3)nc2C(=O)O)c(F)c1 [example 297],very good (a very good herbicidal activity is given at values of at least 85),–,–
COc1cc(F)ccc1-c1cnc(C2CC2)nc1C(=O)O [example 301],good (A good herbicidal activity is given at values of at least 70),very good (a very good herbicidal activity is given at values of at least 85),–
COc1ccc(-c2cnc(C3CC3)nc2C(=O)O)c(Cl)c1 [example 296],very good (a very good herbicidal activity is given at values of at least 85),–,–
C=Cc1ccccc1-c1cnc(C2CC2)nc1C(=O)O [example 183],–,–,herbicidal activity against APESV ([2]; application rate 500 g/ha): very good (a very good herbicidal activity is given at values of at least 85); herbicidal activity against ECHCG ([3]; application rate 500 g/ha): very good (a very good herbicidal activity is given at values of at least 85)
COC(=O)c1nc(C2CC2)ncc1-c1ccc(OC)cc1Cl [example 294],–,–,herbicidal activity against ECHCG ([4]; application rate 1000 g/ha): good (A good herbicidal activity is given at values of at least 70)
O=C(O)c1nc(C2CC2)ncc1-c1ccccc1[N+](=O)[O-] [example 160],very good (a very good herbicidal activity is given at values of at least 85),very good (a very good herbicidal activity is given at values of at least 85),herbicidal activity against ECHCG ([4]; application rate 1000 g/ha): very good (a very good herbicidal activity is given at values of at least 85)
N#Cc1ccccc1-c1cnc(C2CC2)nc1C(=O)O [example 154],–,–,herbicidal activity against ALOMY ([1]; application rate 500 g/ha): very good (a very good herbicidal activity is given at values of at least 85); herbicidal activity against APESV ([2]; application rate 500 g/ha): very good (a very good herbicidal activity is given at values of at least 85); herbicidal activity against ECHCG ([3]; application rate 500 g/ha): very good (a very good herbicidal activity is given at values of at least 85); herbicidal activity against ECHCG ([4]; application rate 500 g/ha): good (A good herbicidal activity is given at values of at least 70)
COc1ccc(F)c(-c2cnc(SC)nc2C(=O)O)c1 [example 83],–,–,herbicidal activity against ECHCG ([4]; application rate 2000 g/ha): good (A good herbicidal activity is given at values of at least 70)
COCOc1ccccc1-c1cnc(C2CC2)nc1C(=O)O [example 180],very good (a very good herbicidal activity is given at values of at least 85),very good (a very good herbicidal activity is given at values of at least 85),herbicidal activity against ECHCG ([4]; application rate 1000 g/ha): very good (a very good herbicidal activity is given at values of at least 85)
COc1ncc(-c2ccc(C)cc2C)c(C(=O)O)n1 [example 57],very good (a very good herbicidal activity is given at values of at least 85),very good (a very good herbicidal activity is given at values of at least 85),–
CC(C)c1ccccc1-c1cnc(C2CC2)nc1C(=O)O [example 175],very good (a very good herbicidal activity is given at values of at least 85),very good (a very good herbicidal activity is given at values of at least 85),–
COc1ccc(Br)c(-c2cnc(C3CC3)nc2C(=O)O)c1 [example 153],very good (a very good herbicidal activity is given at values of at least 85),–,herbicidal activity against ECHCG ([4]; application rate 1000 g/ha): very good (a very good herbicidal activity is given at values of at least 85)
O=C(O)c1nc(C2CC2)ncc1-c1ccccc1C1CC1 [example 187],very good (a very good herbicidal activity is given at values of at least 85),very good (a very good herbicidal activity is given at values of at least 85),herbicidal activity against ECHCG ([4]; application rate 1000 g/ha): very good (a very good herbicidal activity is given at values of at least 85)
COc1ccccc1-c1cnc(C2CC2)nc1C(=O)O [example 177],very good (a very good herbicidal activity is given at values of at least 85),very good (a very good herbicidal activity is given at values of at least 85),herbicidal activity against ECHCG ([4]; application rate 1000 g/ha): good (A good herbicidal activity is given at values of at least 70)
CCc1ncc(-c2cc(F)ccc2C)c(C(=O)O)n1 [example 10],–,–,herbicidal activity against APESV ([2]; application rate 500 g/ha): very good (a very good herbicidal activity is given at values of at least 85); herbicidal activity against ECHCG ([3]; application rate 500 g/ha): very good (a very good herbicidal activity is given at values of at least 85)
COc1ncc(-c2ccccc2C)c(C(=O)O)n1 [example 52],–,–,herbicidal activity against ALOMY ([1]; application rate 2000 g/ha): good (A good herbicidal activity is given at values of at least 70); herbicidal activity against APESV ([2]; application rate 2000 g/ha): very good (a very good herbicidal activity is given at values of at least 85); herbicidal activity against ECHCG ([3]; application rate 2000 g/ha): good (A good herbicidal activity is given at values of at least 70)
COC(=O)c1nc(C(C)C)ncc1-c1cc(C)ccc1C [example 38],good (A good herbicidal activity is given at values of at least 70),very good (a very good herbicidal activity is given at values of at least 85),–
CCc1ncc(-c2cc(Cl)ccc2C)c(C(=O)OC)n1 [example 22],good (A good herbicidal activity is given at values of at least 70),good (A good herbicidal activity is given at values of at least 70),–
COC(=O)c1nc(OC)ncc1-c1cc(F)ccc1C [example 62],very good (a very good herbicidal activity is given at values of at least 85),good (A good herbicidal activity is given at values of at least 70),–
O=C(O)c1nc(C2CC2)ncc1-c1cc(Br)ccc1F [example 135],very good (a very good herbicidal activity is given at values of at least 85),–,herbicidal activity against ALOMY ([1]; application rate 1000 g/ha): herbicidal activity
